Experimental data reported in patent US9487551B2, “Small molecule compounds that control mammal-pathogenic nematodes” (California Institute of Technology, priority 2011, dated 2016).
Entries after “also recorded” stand apart in the source; their conditions may differ.

How the values were obtained:
C. elegans dauer larvae = assay: Dispersal assay; format: in vivo; details: physiological concentration; 0.25% E. coli added; food-only control approximately 35%
Description: C. elegans dauer juveniles were washed with MILLI-Q water 3 times, placed into 6 cm petri dishes with a small amount of water, and rested overnight. Approximately 200-300 nematodes in 10 μl of water were placed on an agar plate, to which 2 μl of treatment was added. The liquid culture that produced 60% dauer animals was centrifuged, filtered with a 0.45 μm filter, and used as a positive control for dispersal. Thereafter, media were lyophilized and resuspended in MILLI-Q water 5 times. 2 μl to 10 μl of nematode suspension was used for the assay. As a negative control, 0.5% E. coli (HB101) was prepared in S-complete, lyophilized, and adjusted to the final volume of 0.25% E. coli in the assay.
Nematodes were quantified using Image J software (Image Processing and Analysis in Java, National Institutes of Health). The number of nematodes visualized and counted using Image J is illustrated in FIG. 63B. Nematodes inside the circle were subtracted manually from the total number of worms counted because of the location of their placement. Each treatment was replicated 9-11 times. The graph was normalized to the positive control, the dauer conditioned medium.
A synthetic blend of these ascarosides was then tested for dispersal activity, using the dauer conditioned medium as a positive control. The media was estimated to contain approximately half of the original 0.5% E. coli (HB101) food source. […]

C. elegans males = assay: Attraction assay (long-range, point source); format: in vivo; details: 10 cm plate
Description: 10 cm standard chemotaxis plates were prepared (Bargmann et al., Cell 74:515-27 (1993), which is hereby incorporated by reference in its entirety) and stored at 4° C. until the day before use. Standard 1 cm-diameter copper pipes were sectioned into 1 cm-tall segments to use for the holding chambers. The females/hermaphrodites were isolated overnight, washed 3 times in M9 buffer, and then allowed to wander on a plate pre-conditioned with 50 uL of 1000× treptomycin for 2 hours to kill any bacteria that might produce a false positive attractant. The nematodes were then washed 3 times, and the supernatant from the last wash was placed in a copper chamber, as the control, 1 cm from the border of the 10 cm plate. The nematodes were suspended in M9 within the copper chamber, 1 cm from the border opposite the control chamber. After 6 hours, they were subsequently removed and replaced with 3 μL of 1M sodium azide. 100 C. elegans adult males were isolated overnight, washed several times in ddH2O, and placed at the center of the agar plate. After several hours, males paralyzed within 2 cm of each region were scored. The Chemotaxis Index (Bargmann et al., Cell 74:515-27 (1993), which is hereby incorporated by reference in its entirety) was then used to score male chemotaxis to either point source.

C. elegans [1] = assay: Ascaroside function (Table 12); format: in vivo, Caenorhabditis elegans; parameters: key to Attract Females/Herm. / Promote Dauer Formation / Attract Males: A very strong result of affecting nematode behavior is designated in the table as “strong.”; details: listed = has this function
Description: (§1) Various ascarosides and ascaroside blends were administered to various nematodes described below (Table 12). […] A very strong result of affecting nematode behavior is designated in the table as “strong.”

S. feltiae = assay: Ascaroside function (Table 12); format: in vivo, Steinernema feltiae; details: listed = has this function
Description: as §1

C. elegans [2] = details: cited from earlier work
C. elegans [3] = details: in vivo; cited from earlier work
[4] = tested on: Several of the tested nematode species; assay: Retention assay; format: in vivo; details: 1 nM, 1 μM and 1 mM tested
Description: (§2) OP50 E. coli was grown on a standard 5 cm agar plate (made with standard Nematode Growth Medium). The bacterial lawn was 16 mm in diameter and was grown overnight at 20° C. before being used in trials. Two 4 mm spots (0.6 μL) were placed on opposite sides of the bacterial lawn (using a transparent template to guide spot placement), and several minutes elapsed for the liquid to settle in before placing nematodes down on the assay. Recording began immediately upon worm placement. 0.6 μL of the control was placed on one side of the lawn, and 0.6 μL of the experimental cue was placed on the other side of the lawn, changing the location of the cue throughout trials between left/right and top/bottom to avoid bias.
(§3) Nematodes were isolated by gender at the L4 stage the day before being used in trials as developed adults. Worms were evenly divided and placed at two points equidistant from the foci of the scoring region. Trials were recorded for 20 minutes, and frames were collected for analysis at 1 frame per second. Results were averaged from at least three different trials. For every nematode species in this study, a different total number of worms (using water in both scoring regions) was tested to determine the minimum number of worms necessary for consistent unbiased results over a 20 minute trial. The total number of worms used in the multiple species assays depended on that species' optimal parameters. 10 worms were used for P. redivivus males and females, 20 worms were used for C. elegans males and O. dolichuridae males, and 14 worms were used for S. glaseri males. The Automated Software was used to compare worm occupancy in each scoring region over time, and the Chemotaxis Index (Bargmann et al., Cell 74:515-27 (1993), which is hereby incorporated by reference in its entirety) was adapted to score preference or avoidance to each ascaroside.
(§4) A video camera attached to the microscope produced a digital video stream, which was then analyzed. The ratio of the time the average worm spent in each region of interest was calculated for every trial. For ease of implementation, all worms in a single experiment were assumed to be roughly the same size. Thus worm pixels were counted instead of whole worms, allowing fractions of a worm in the region of interest to be taken into account. It also eliminated the need for a shape-based worm identification algorithm, and allowed each frame to be analyzed independently. A band-pass filter was applied to each frame to eliminate the effect of uneven lighting and also accentuate the worms against the background. The worm was then identified after thresholding the filtered image. Throughout each experiment, the locations and sizes of the regions of interest were known. Through the filtering described above, it is known which pixels are occupied by worms and which ones are not. Thus, the ratio of worm-pixels to all pixels inside the region of interest can be calculated to produce the worm-occupancy ratio. This calculation was done for every frame, giving a plot output of worm-occupancy ratio vs. time for each region.

Panagrellus redivivus = assay: Ascaroside function (Table 12); format: in vivo; details: listed = has this function
Description: as §1

S. glaseri = assay: Ascaroside function (Table 12); format: in vivo; details: listed = has this function
Description: as §1

C. elegans [5] = assay: Spot attraction assay; format: in vivo
Description: The spot attraction assays were conducted according to a previously reported method (Pungaliya et al., PNAS 106:7708-13 (2009); Srinivasan et al., Nature 454:1115-18 (2008), which are hereby incorporated by reference in their entirety). For both C. elegans hermaphrodites and males, 50-60 worms were harvested daily at the fourth larval stage (L4) and stored segregatedly by sex at 20° C. overnight, to be used as young adults the following day. For the competition experiments, two conditions were used: 120 nM ascr#3 and 10 nM icas#3 (Condition 1), or 12 μM ascr#3 and 1 μM icas#3 (Condition 2) in water containing 10% ethanol. Aliquots were stored at −20° C. in 20 μL tubes. 10% ethanol in water was used as control.
Attraction assays with hbas#3 were conducted as previously reported (Srinivasan et al., Nature 454:1115-18 (2008); Pungaliya et al., Proc. Natl. Acad. Sci. U.S.A. 106:7708-13 (2009), which are hereby incorporated by reference in their entirety). For the attraction assays, 50-60 hermaphrodite worms were harvested daily at the early fourth larval stage (L4) and stored at 20° C. overnight to be used as young adults the following day. Hbas#3 was dissolved in water containing 10% ethanol. Aliquots were stored at −20° C. in 20 μL tubes. 10% ethanol in water was used as control.

C. elegans [6] = assay: Aggregation assay; format: in vivo
Description: Aggregation behavior of worms was measured using assays reported in de Bono & Bargmann, Cell 94:679-89 (1998), which is hereby incorporated by reference in its entirety. Aggregation assays were conducted on standard NGM plates. Plates containing indole ascarosides were made by adding the indole ascaroside stock solution to the NGM media before they were poured onto the plates. These plates were dried at room temperature for 2 to 3 days. Control plates were treated similarly, except that ethanol solutions instead of icas solutions were added to the plates, corresponding to the amount of ethanol introduced via the icas solutions. Final ethanol concentrations of the plates were below 0.1% for all conditions. After drying, both control plates and plates containing indole ascarosides were seeded with 150 μl of an overnight culture of E. coli OP50 using a micropipette, and were allowed to dry for 2 days at room temperature. For “low worm density” experiments, 20 worms were placed onto the lawn and left at 20° C. for 3 hours. For “high worm density” experiments, approximately 120 worms were placed onto the bacterial lawn and left at 20° C. for 3 hours. Aggregation behavior was quantified as the number of animals that were in touch with two or more animals at greater than 50% of their body length.

[7] = tested on: P. redivivus males and females; assay: Retention assay; format: in vivo
Description: as §2, §3, §4

SMILES | dispersing nematodes, normalized to the percent of the positive control response (C. elegans dauer larvae) [%] | male attraction from a distance (C. elegans males) | Attract Males (C. elegans [1]) | Dispersal (of dauer larvae, infectious juveniles) (C. elegans [1]) | Promote Dauer Formation (C. elegans [1]) | Dispersal (of dauer larvae, infectious juveniles) (S. feltiae) | dauer-inducing activity (C. elegans [3]) | also measured
CC(=O)CCC[C@@H](C)O[C@@H]1O[C@@H](C)[C@H](O)C[C@H]1O [ascr#2] | 40 | chemotax towards | ascr#2 | ascr#2 | ascr#2 ([strong]) | ascr#2 | individually promote dauer entry | amount as low as which elicited C. elegans male attraction (C. elegans males): 500 attomol; most active amount for attraction (C. elegans [2]; from 1 μM concentration): ~1 pmol
C[C@H](CC/C=C/C(=O)Nc1ccc(C(=O)O)cc1)O[C@@H]1O[C@@H](C)[C@H](O)C[C@H]1O [ascr#8] | 50 | not active | ascr#8 | ascr#8 | ascr#8 ([strong]) | ascr#8 | individually promote dauer entry | preference for ascaroside-conditioned areas [4]: preferred areas conditioned; Attract Females/Herm. (Panagrellus redivivus): ascr#8; Attract Males (Panagrellus redivivus): ascr#8; Attract Males (S. glaseri): ascr#8; male attraction (C. elegans [2]; in vivo): major component of the male-attracting signal
C[C@H](CCC(=O)O)O[C@@H]1O[C@@H](C)[C@H](OC(=O)c2c[nH]c3ccccc23)C[C@H]1O [icas#9] | – | – | ([strong]) | – | icas#9 | icas#9 | moderate dauer-inducing activity; also recorded: individually promote dauer entry | attraction in spot attraction assay (C. elegans [5]; 1 pmol (high concentrations), N2 hermaphrodites and him-5 males): attractive to both C. elegans sexes; also recorded: attracted both males and hermaphrodites; attraction of hermaphrodites (C. elegans [5]; low concentrations, N2 hermaphrodites): strongly attracted; attraction of males (C. elegans [5]; low concentrations, males): males are not attracted; aggregation of solitary and social hermaphrodites (C. elegans [6]; constant background concentration): increased aggregation; also recorded: strongly increased the propensity; concentration window for hermaphrodite attraction and aggregation (C. elegans [6]; in vivo): femtomolar to picomolar; response of P. redivivus males [7]: no response; Attract Females/Herm. (C. elegans [1]): icas#9 ([strong]); Repel Females/Herm. (Panagrellus redivivus): icas#9; aggregation (C. elegans [2]; in vivo): aggregating stimulant
